The source of these data is patent publication US20260041669A1, “SOLID FORMS OF A CDK INHIBITOR” (Relay Therapeutics, Inc., priority 2022, published 2026).

This data set in a line: Thermodynamic solubility of cocrystals (HPLC quantitation). It is filed as physicochemical. Particulars: for solubility at 24 h: thermodynamic from solid. Here is the method:
Base Buffer (FaSSGF), pH 1.6—Sodium chloride (2.03 g) was dissolved in Ca. 800 ml of deionised water in a 1 L volumetric flask. This solution was mixed thoroughly and then the pH adjusted to 1.6±0.05 with concentrated hydrochloric acid. The solution was then made to volume with deionised water and the pH recorded (pH 1.6).
FaSSGF Media—Phares SIF (simulated intestinal fluid) powder (0.06 g) was dissolved in Ca. 800 ml of base buffer (2.1.1) in a 1 L volumetric flask. This solution was mixed thoroughly and then made to volume with the same base buffer. The final pH was recorded (pH 1.7)
Acetate Base Buffer (FeSSIF), pH 5.0—Sodium hydroxide (11.90 g), acetic acid (8.25 ml) and sodium chloride (3.96 g) were dissolved in Ca. 800 ml of deionised water in a 1 L volumetric flask. This solution was mixed thoroughly and then the pH adjusted to 5.0±0.05 with 0.5M hydrochloric acid. The solution was then made to volume with deionised water and the pH recorded (pH 5.0)
FeSSIF Media—Phares SIF (simulated intestinal fluid) powder (1.12 g) was dissolved in Ca. 80 ml of base buffer (2.2.1) in a 100 ml volumetric flask. This solution was mixed thoroughly and then made to volume with the same base buffer. The final pH was recorded (pH 4.8)
Phosphate Base Buffer (FeSSIF), pH 6.5—Sodium hydroxide (0.41 g), sodium phosphate monobasic (3.95 g) and sodium chloride (6.49 g) were dissolved in Ca. 800 ml of deionised water in a 1 L volumetric flask. This solution was mixed thoroughly and then the pH adjusted to 6.5 f 0.05 with 0.5M hydrochloric acid. The solution was then made to volume with deionised water and the pH recorded (pH 6.5)
FaSSIF Media—Phares SIF (simulated intestinal fluid) powder (0.23 g) was dissolved in Ca. 80 ml of base buffer ([00300]) in a 100 ml volumetric flask. This solution was mixed thoroughly and then made to volume with the same base buffer. The final pH was recorded (pH 6.3)
DI Water (deionized water)—The pH was recorded (pH 6.1)
Thermodynamic Solubility—Sufficient sample was suspended in 0.5 ml media for a maximum anticipated concentration of Ca. 10 mg/ml of the free form of the compound. The resulting suspensions were then shaken at 25° C./750 rpm for 24 hours in DI H2O and at 37° C./750 rpm for 24 hours in simulated fluids. After equilibration, the appearance was noted, and the pH of the saturated solution was measured. Samples were then filtered through a glass ‘C’ fibre filter (Particle retention 1.2 μm), before dilution with buffer as appropriate.
Quantitation was by HPLC with reference to a standard solution of approximately 0.15 mg/ml. Different volumes of the standards and diluted sample solutions were injected. The solubility was calculated using the peak areas determined by integration of the peak found at the same retention time as the principal peak in the standard injection.
The results from the solubility measurements in deionized water (DI water), stimulated fasting state conditions in the gastric fluid (FaSGF), simulated fed state conditions in the small intestines (FeSSIF), and simulated fasting state conditions in the small intestines fluid (FaSSIF) are summarized in Table 16.

Setting [1] is: DI Water, shaken at 25° C./750 rpm for 24 hours, single replicate.
[2] abbreviates: FaSSGF, shaken at 37° C./750 rpm for 24 hours, average.
[3] abbreviates: FaSSGF, shaken at 37° C./750 rpm for 24 hours, single replicate.
Where [4] appears, read: FeSSIF, shaken at 37° C./750 rpm for 24 hours, average.
[5] abbreviates: FeSSIF, shaken at 37° C./750 rpm for 24 hours, single replicate.
Setting [6] is: DI Water, shaken at 25° C./750 rpm for 24 hours, average.
Setting [7] is: FaSSIF, shaken at 37° C./750 rpm for 24 hours, average.
Where [8] appears, read: FaSSIF, shaken at 37° C./750 rpm for 24 hours, single replicate.

Each structure is given as a SMILES string. In brackets after ≈: the same amount, converted by molar mass. Several values for one entry are separate records, joined by “and”; a condition that tells them apart may be missing. Equal entries are not always repeated. Where two headings read alike, the source gives them in different places.

Broadly, the Solubility is the dissolved amount per volume that the medium holds. Higher therefore signals much dissolved substance. For orientation: solubility means how much of the substance goes into solution per volume.

On to `Cn1nc(OCC(F)F)cc1C(=O)Nc1cc([C@H]2C[C@@H](OC(=O)NC34CC(C3)C4)CO2)n[nH]1` [Componud I-3 Form A], for which the “Solubility” value under setting [1] was determined as 300 µg/mL (≈ 643 µM); the “Solubility” value under setting [3] was 380 µg/mL and 390 µg/mL; the “Solubility” value under setting [5] is 620 µg/mL and 360 µg/mL. Moreover, the “Average Solubility” value under setting [2] was 390 µg/mL and the “Average Solubility” value under setting [4] is 490 µg/mL. Moreover, the solubility at 24 h is, setting by setting: (deionized water, 25 °C, pH 6.1, water, DI Water, shaken at 25° C./750 rpm for 24 hours, average, read-out: Average Solubility) 300 µg/mL (≈ 643 µM); (deionized water, 25 °C, pH 6.1, water, DI Water, shaken at 25° C./750 rpm for 24 hours, single replicate, read-out: Solubility) 290 µg/mL (≈ 622 µM).

`Cn1nc(OCC(F)F)cc1C(=O)Nc1cc([C@H]2C[C@@H](OC(=O)NC34CC(C3)C4)CO2)n[nH]1` [Compound 1-5 Form A]: the “Average Solubility” value is 280 µg/mL under setting [6], 310 µg/mL under setting [2], 250 µg/mL under setting [7] and 820 µg/mL under setting [4]. Also, the “Solubility” value is 280 µg/mL (≈ 600 µM) under setting [1]; 310 µg/mL (≈ 665 µM) under setting [3]; 240 µg/mL (≈ 515 µM) under setting [8]; 840 µg/mL and 800 µg/mL under setting [5].

On to `Cn1nc(OCC(F)F)cc1C(=O)Nc1cc([C@H]2C[C@@H](OC(=O)NC34CC(C3)C4)CO2)n[nH]1` [Compound 1-6 Form A], for which the “Average Solubility” value reads like this: under setting [6], 330 µg/mL; under setting [2], 320 µg/mL; under setting [7], 310 µg/mL; under setting [4], 700 µg/mL. The “Solubility” value is, setting by setting: under setting [1], 330 µg/mL (≈ 707 µM); under setting [3], 320 µg/mL (≈ 686 µM); under setting [8], 310 µg/mL (≈ 665 µM); under setting [5], 660 µg/mL and 730 µg/mL.

With `Cn1nc(OCC(F)F)cc1C(=O)Nc1cc([C@H]2C[C@@H](OC(=O)NC34CC(C3)C4)CO2)n[nH]1` [Compound I-2 Form A], the “Average Solubility” value under setting [6] was 210 µg/mL. The “Solubility” value by setting is: under setting [1], 210 µg/mL (≈ 450 µM); under setting [3], 350 µg/mL (≈ 750 µM); under setting [5], 920 µg/mL and 850 µg/mL. Also, the solubility at 24 h (FaSSGF (simulated gastric fluid, fasted state), 37 °C, pH 1.7, fassgf or other biorelevant, FaSSGF, shaken at 37° C./750 rpm for 24 hours, average, read-out: Average Solubility) is 350 µg/mL (≈ 750 µM); the solubility at 24 h (FaSSGF (simulated gastric fluid, fasted state), 37 °C, pH 1.7, fassgf or other biorelevant, FaSSGF, shaken at 37° C./750 rpm for 24 hours, single replicate, read-out: Solubility) is 340 µg/mL (≈ 729 µM); the solubility at 24 h (FaSSIF (simulated intestinal fluid, fasted state), 37 °C, pH 6.3, fassif, FaSSIF, shaken at 37° C./750 rpm for 24 hours, average, read-out: Average Solubility) is 290 µg/mL (≈ 622 µM); the solubility at 24 h (FaSSIF (simulated intestinal fluid, fasted state), 37 °C, pH 6.3, fassif, FaSSIF, shaken at 37° C./750 rpm for 24 hours, single replicate, read-out: Solubility) is 290 µg/mL (≈ 622 µM); the solubility at 24 h (FeSSIF (simulated intestinal fluid, fed state), 37 °C, pH 4.8, fessif, FeSSIF, shaken at 37° C./750 rpm for 24 hours, average, read-out: Average Solubility) is 890 µg/mL (≈ 1910 µM).

As to `Cn1nc(OCC(F)F)cc1C(=O)Nc1cc([C@H]2C[C@@H](OC(=O)NC34CC(C3)C4)CO2)n[nH]1` [Compound I-4 Form A], the “Average Solubility” value runs as follows: under setting [6], 290 µg/mL; under setting [2], 370 µg/mL; under setting [7], 290 µg/mL; under setting [4], 880 µg/mL. The “Solubility” value runs as follows: under setting [1], 290 µg/mL (≈ 622 µM); under setting [3], 370 µg/mL and 360 µg/mL; under setting [8], 280 µg/mL (≈ 600 µM); under setting [5], 940 µg/mL and 820 µg/mL.
